Three compounds from the NIST ThermoML archive (doi:10.1016/j.fluid.2014.07.041) can be followed below.

As a reminder, the mass density is the mass of a sample divided by its volume.

Molecules are shown by their SMILES. Numbers after ± are expanded uncertainties.

The conditions of series [1]: 298.15 K; 101.33 kPa; Liquid; Vibrating tube method.
A short description of series [2]: Boiling temperature at pressure P. As to conditions: 101.33 kPa; Liquid; Ebulliometric method (Recirculating still).

As for `CC1CCCCC1` [methylcyclohexane], the mass density in series [1] worked out at 766.29 ± 2 kg/m3. For the same compound, the “Boiling temperature at pressure P” value in series [2] worked out at 100.73 ± 0.1 °C.
On the same counts, the results for `CCOCCO` [2-ethoxyethan-1-ol] are 928.73 ± 2 kg/m3 and 135.47 ± 0.1 °C.
The corresponding values for `COCCO` [2-methoxyethan-1-ol] are 965.31 ± 2 kg/m3 and 124.52 ± 0.1 °C.
